Test results published in US20110117220A1, “PREPARATION METHOD OF PLANT EXTRACT USING HIGH PRESSURE-ENZYMATIC DECOMPOSITION TECHNIQUE AND THE COSMETIC COMPOSITION CONTAINING THE EXTRACT” (AMOREPACIFIC CORPORATION, priority 2009, published 2011).
In brackets after ≈: the same amount, converted by molar mass.

Tests used:
[1] = DPPH radical elimination (antioxidant activity); format: biochemical; settings: 100 μM DPPH in ethanol, 37° C., 30 minutes, absorbance 540 nm
Text: In order to measure the antioxidant effect of the plant extract prepared using the high-pressure enzymatic decomposition technique, a DPPH radical elimination effect was compared between the green tea extract prepared using the high-pressure enzymatic decomposition technique of the present invention (Example 1), the green tea extract prepared using the solvent extraction technique (Comparative Example 3), and Baicalin, a known antioxidant substance.
To measure the antioxidant effects of these extracts, a method of evaluating antioxidant activity based on the change in absorbance caused by the reduction of the organic radical DPPH (1,1-diphenyl-2-picrylhydrazyl) was used. The decrease in absorbance caused by the inhibition of oxidation of DPPH compared to the control was measured, and the concentration (IC50) at which the absorbance was 50% of the control was defined as the effective antioxidant concentration. A lower IC50 value indicates a higher DPPH removal effect, indicating higher antioxidant activity.
Specifically, 10 μl of each of the extracts of Example 1 and Comparative Example 3 and Baicalin was added to 100 μM of a solution of DPPH in ethanol to prepare a reaction solution. The reaction solution was allowed to react at 37° C. for 30 minutes, and then measured for absorbance at 540 nm.

[2] = system: transglutaminase-1; test: Promotion of transglutaminase-1 synthesis in human skin cells; format: cell-based; settings: concentration 1.5 mM, 2 days
Method: Because the synthesis of transglutaminase-1 is essential for the formation and maintenance of the horny layer, the effect of promoting the synthesis of transglutaminase-1 can be considered to enhance the skin barrier and increase the skin moisturizing effect. Specifically, human skin cells were added to each well of a 96-well plate at a density of 5×10^4 cells/well and allowed to adhere to each well for 24 hours. The adhered cells were treated with each of the test materials, and after 2 days, the medium was removed, and the cells were stored in a refrigerator at −20° C. The treated cells were disrupted by subjecting the cells twice to freeze-thawing, and then treated with a mixture of acetone:ethanol (1:1, v/v) stored at −20° C. Then, the cells were allowed to stand at 4° C. for 30 minutes so as to be immobilized. Then, the cells were allowed to stand at room temperature to evaporate the organic solvent. […] The expression level of transglutaminase in the cells was determined by measuring the absorbance at 490 nm, and the correction of the measurement was carried out by measuring the background at 630 nm. The absorbance values of the treated cells were compared with the absorbance value of an untreated control group, thereby calculating the rate of promotion of transglutaminase-1 synthesis, and the results of the calculation are shown in Table 6 below.

[3] = system: tyrosinase; test: Tyrosinase activity inhibition (method of Vanni et al); format: biochemical; settings: concentration 200 mg/ml; 37° C., 10 minutes
Text: In order to measure the skin whitening effect of the plant extract prepared using the high-pressure enzymatic decomposition technique, a tyrosinase activity inhibitory effect was compared between the green tea extract of Example 1 prepared using the high-pressure enzymatic decomposition technique of the present invention, the green tea extract of Comparative Example 3 prepared using the solvent extraction technique, and vitamin C, a typical whitening functional component.
The tyrosinase activity inhibitory effect was measured using the method of Vanni at al (A. Vanni, Annali Di Chimica, 80, p35, 1990). Specifically, 1.0 ml of 0.1M potassium phosphate buffer (pH 6.8), 1.0 ml of 0.3 mg/ml tyrosine aqueous solution and 0.1 ml of 1,250 units/ml tyrosinase (SIGMAT-7755) were mixed with each other, and 0.2 ml of each sample solution was added thereto at a concentration of 200 mg/ml. Then, the mixture was subjected to an enzymatic reaction at 37° C., for 10 minutes. The absorbance of the reaction solution was measured at 480 nm, and based on the results of the measurement, the tyrosinase activity inhibitory rate (%) of each sample was calculated according to the following equation 2. […]
wherein A: absorbance at 480 nm of a reaction solution to which the sample was not added; and B: absorbance at 480 nm of a reaction solution to which the sample was added.

## O=C(O)[C@H]1O[C@@H](Oc2cc3oc(-c4ccccc4)cc(=O)c3c(O)c2O)[C@H](O)[C@@H](O)[C@@H]1O [Baicalin]
[1]
  IC50 (DPPH radical elimination): 3100 µg/mL (≈ 6.95 mM)

## [Ca+2].[Cl-].[Cl-] [Calcium chloride, calcium chloride]
[2]
  Promotion rate of transglutaminase-1 synthesis (%): 169.9 ± 6.4%

## O=C1O[C@H]([C@@H](O)CO)C(O)=C1O [Vitamin C, vitamin C]
[3]
  Tyrosinase activity inhibitory rate (%): 20%
